Where two headings read alike, the source gives them in different places.
Assays:
[1] = target: T1, malonyl-CoA decarboxylase prepared from rat heart (Rattus norvegicus, UniProt Q920F5); assay: In vitro MCD inhibitory assay (spectrophotometric, 96 well); format: biochemical
T1 construct: from tissue; host or cells: rat heart
T1 sequence (Q920F5 39-492): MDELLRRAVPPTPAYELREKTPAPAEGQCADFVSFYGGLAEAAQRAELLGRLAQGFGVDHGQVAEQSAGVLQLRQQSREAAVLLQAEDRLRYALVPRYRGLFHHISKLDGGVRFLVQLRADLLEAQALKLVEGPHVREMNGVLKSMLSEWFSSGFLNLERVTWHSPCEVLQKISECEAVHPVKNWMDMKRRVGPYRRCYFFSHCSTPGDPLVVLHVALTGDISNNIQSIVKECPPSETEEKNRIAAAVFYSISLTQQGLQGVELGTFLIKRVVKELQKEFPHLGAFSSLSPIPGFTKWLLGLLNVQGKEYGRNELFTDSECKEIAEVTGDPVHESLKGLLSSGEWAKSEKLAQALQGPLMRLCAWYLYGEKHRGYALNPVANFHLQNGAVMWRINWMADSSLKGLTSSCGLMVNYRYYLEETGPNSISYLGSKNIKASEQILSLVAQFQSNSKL
Method: The following reagents are added into a 96 well titer plate: Tris-HCl buffer, 20 μL, DTE, 10 μL; I-malate, 20 μL; NAD, 10 μL; NADH, 25 μL; water, 80 μL; malic dehydrogenase, 5 μL. The contents are mixed and incubated for 2 min followed by the addition of 5 μL of citrate synthase.

[2] = target: T2, carnitine palmitoyltransferase-I (CPT-I) muscle (M) isoform (Homo sapiens, UniProt Q92523); conditions: read-out: IC50 of malonyl-CoA inhibition of CPT-I; cited from earlier work
T2 sequence (Q92523 1-772): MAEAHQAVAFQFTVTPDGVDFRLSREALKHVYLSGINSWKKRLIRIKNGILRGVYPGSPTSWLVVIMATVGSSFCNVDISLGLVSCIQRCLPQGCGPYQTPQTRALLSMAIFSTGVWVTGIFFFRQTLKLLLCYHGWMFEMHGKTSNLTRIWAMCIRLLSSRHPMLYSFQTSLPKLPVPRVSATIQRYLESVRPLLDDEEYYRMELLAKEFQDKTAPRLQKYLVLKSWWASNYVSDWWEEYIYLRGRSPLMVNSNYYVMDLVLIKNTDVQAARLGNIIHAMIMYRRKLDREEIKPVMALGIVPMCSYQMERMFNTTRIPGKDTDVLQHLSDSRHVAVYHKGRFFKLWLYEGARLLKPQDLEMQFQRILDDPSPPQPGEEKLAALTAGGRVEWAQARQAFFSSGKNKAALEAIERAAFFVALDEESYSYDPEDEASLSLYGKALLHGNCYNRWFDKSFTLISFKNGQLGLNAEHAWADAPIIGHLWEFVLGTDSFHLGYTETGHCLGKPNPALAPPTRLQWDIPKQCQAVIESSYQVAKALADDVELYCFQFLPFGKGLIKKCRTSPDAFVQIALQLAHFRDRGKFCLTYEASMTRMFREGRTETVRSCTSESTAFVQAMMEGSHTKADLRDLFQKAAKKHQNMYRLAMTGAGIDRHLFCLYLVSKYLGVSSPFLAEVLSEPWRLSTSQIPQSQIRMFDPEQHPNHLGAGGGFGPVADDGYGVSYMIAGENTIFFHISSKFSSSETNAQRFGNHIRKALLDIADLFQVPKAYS

breast carcinoma cells = conditions: Pizer et al.; cited from earlier work
[3] = MCD from rat heart, concentration causing 50% inhibition of MCD activity, read-out: IC50 of the MCD inhibitors

Compound	IC50 [1, 3]	further results
OC(c1ccc(N(Cc2ccc(C(F)(F)F)cc2)C(=S)N2CCOCC2)cc1)(C(F)(F)F)C(F)(F)F [Example 1, morpholine-4-carbothioic acid [4-(2,2,2-trifluoro-1-hydroxy-1-trifluoromethyl-ethyl)-phenyl]-(4-trifluoromethyl-benzyl)-amide]	123 nM	
N#CCCCCN(C(=S)N1CCOCC1)c1ccc(C(O)(C(F)(F)F)C(F)(F)F)cc1 [Example 2, N-(4-cyanobutyl)-N-{4-[2,2,2-trifluoro-1-hydroxy-1-(trifluoromethyl)ethyl]phenyl}morpholine-4-carbothioamide]	42 nM	
CCCCN(C(=N)N(CC)CC)c1ccc(C(O)(C(F)(F)F)C(F)(F)F)cc1.Cl [Example 4, butyl {4-[2,2,2-trifluoro-1-hydroxy-1-(trifluoromethyl)ethyl]phenyl}amino)(diethylamino)methaniminium chloride]	164 nM	
CCCCN(C(=N)N(CC)CC)c1ccc(C(O)(C(F)(F)F)C(F)(F)F)cc1.Cl [Example 4]		melting point: 217.1 to 219.2 °C (dec.)
COC(=O)CCCCN(C(=S)N1CCOCC1)c1ccc(C(O)(C(F)(F)F)C(F)(F)F)cc1 [Example 5-48]	45 nM	
CCCCN(C(=S)N(CC)CC)c1ccc(C(O)(C(F)(F)F)C(F)(F)F)cc1 [Example 5-108]	147 nM	
CC(C)(C)OC(=O)CCNC(=O)C1CC(c2ccc(C(O)(C(F)(F)F)C(F)(F)F)cc2)=NO1 (stereo not drawn) [Example 12, 1,1-dimethylethyl N-[(3-{4-[2,2,2-trifluoro-1-hydroxy-1-(trifluoromethyl)ethyl]phenyl}-4,5-dihydroisoxazol-5-yl)carbonyl]-beta-alaninate]	515 nM	
CCCC(O)(CCC)c1ccc(C(O)(C(F)(F)F)C(F)(F)F)cc1 [Example 15]	127 nM	
CCCCNC(=O)c1c(-c2ccccc2)nc(-c2ccc(C(O)(C(F)(F)F)C(F)(F)F)cc2)n1CCC [Example 22, N-butyl-4-phenyl-1-propyl-2-{4-[2,2,2-trifluoro-1-hydroxy-1-(trifluoromethyl)ethyl]phenyl}-1H-imidazole-5-carboxamide]	354 nM	
CCCCNC(=O)c1c(-c2ccccc2)nc(-c2ccc(C(O)(C(F)(F)F)C(F)(F)F)cc2)n1C(C)C [Example 23-11]	44 nM	
CCOP(=O)(OCC)N(CC)c1ccc(C(O)(C(F)(F)F)C(F)(F)F)cc1 [Example 28, diethyl ethyl{4-[2,2,2-trifluoro-1-hydroxyl-1-(trifluoromethyl)ethyl]phenyl}amidophosphate]		IC50 [1]: 90 nM
CC(C)(COP(=O)(O)OP(=O)(O)OC[C@H]1O[C@@H](n2cnc3c(N)ncnc32)[C@H](O)[C@@H]1OP(=O)(O)O)[C@@H](O)C(=O)NCCC(=O)NCCSC(=O)CC(=O)O [Malonyl-CoA]		IC50 [2]: 30 nM
CCCCCCCCCCCCCCOc1ccc(C(=O)O)o1 [TOFA, 5-(tetradecyloxy)-2-furoic acid]		malonyl-CoA level (breast carcinoma cells): 60 % of the control

From patent publication US7279477B2 (Chugai Seiyaku Kabushiki Kaisha, priority 2001, dated 2007)
